One assay addresses T1, Apolipoprotein L1 (Homo sapiens, UniProt O14791).
T1 sequence (O14791 whole entry): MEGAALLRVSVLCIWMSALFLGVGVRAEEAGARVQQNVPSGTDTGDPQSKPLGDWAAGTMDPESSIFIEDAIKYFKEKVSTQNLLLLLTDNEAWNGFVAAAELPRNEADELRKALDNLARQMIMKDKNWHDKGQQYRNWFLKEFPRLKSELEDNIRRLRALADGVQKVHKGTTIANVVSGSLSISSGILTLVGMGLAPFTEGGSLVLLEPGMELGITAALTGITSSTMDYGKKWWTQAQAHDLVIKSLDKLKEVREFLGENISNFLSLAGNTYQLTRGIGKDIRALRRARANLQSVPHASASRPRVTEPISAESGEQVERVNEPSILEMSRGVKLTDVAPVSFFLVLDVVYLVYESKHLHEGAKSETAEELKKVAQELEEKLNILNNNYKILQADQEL
As to the kind of experiment: Inhibition of APOL1 (unknown origin) in HEK293 cells assessed as thallium influx incubated for 30 mins by FLIPR based thallium influx assay. In kind it is cell-based.

Another assay relates to Trypanosoma brucei. Kind of assay: Trypanocidal activity against bloodstream forms of Trypanosoma brucei using recombinant APOL1 assessed as cell viability incubated for 16 hrs by cell lysis based alamar blue assay. The class given is functional, organism-based.

For the compound `N#Cc1ccc(-c2[nH]c3c(F)cc(F)cc3c2CCC(=O)N[C@H]2CCNC2=O)cc1`, the IC50 on Apolipoprotein L1 and in the assay on Trypanosoma brucei was below 250 nM throughout.
Regarding `N#Cc1cc(F)cc2c(CCC(=O)N[C@@H]3C(=O)NC[C@H]3O)c(-c3ccc(F)cc3)[nH]c12`, the IC50 at Apolipoprotein L1 and in the assay with Trypanosoma brucei was below 250 nM throughout.
Consider `COc1ccc(-c2[nH]c3ccccc3c2CCC(=O)N[C@@H]2C(=O)NC[C@H]2O)cc1`, for which the IC50 at Apolipoprotein L1 and in the assay on Trypanosoma brucei was below 250 nM throughout.
`O=C(CCc1c(-c2ccccc2)[nH]c2c(F)cccc12)N[C@@H]1C(=O)NC[C@H]1O`: the half-inhibitory concentration (IC50) on Apolipoprotein L1 and with Trypanosoma brucei was below 250 nM each time.
Consider `O=C(CCc1c(-c2ccc(F)cc2)[nH]c2c(F)cc(F)cc12)N[C@@H]1C(=O)NC[C@@H]1O`, for which the IC50 on Apolipoprotein L1 and in the assay with Trypanosoma brucei was below 250 nM throughout.
As for `O=C(CCc1c(-c2ccccc2)[nH]c2cc(F)c(F)cc12)N[C@@H]1C(=O)NC[C@H]1O`, the concentration for half-maximal inhibition (IC50) at Apolipoprotein L1 and in the assay on Trypanosoma brucei was below 250 nM each time.
